Measured values: US8957047B2, “GLA monotherapy for use in cancer treatment” (Immune Design Corp., priority 2013, dated 2015)

Experiments:
B16 melanoma cells = experiment: Murine B16 melanoma model, subcutaneous inoculation (Example 1); format: in vivo, mice; details: 5 μg GLA-SE i.m. on Day 0, Day 9 and Day 14; relative to saline; FIG. 2
Method: The B16 murine melanoma model is an accepted animal model for both solid tumor formation as well as metastasis (see e.g., Curr Protoc Immunol. 2001 May; CHAPTER 20: Unit-20.1. doi:10.1002/0471142735.im2001s39). In this study, mice were inoculated subcutaneously with 3×10^5 B16 cells on Day minus 9 (n=10 per group). Mice were treated with either saline or 5 μg GLA-SE i.m. on Day 0, Day 9 and Day 14.

B16F10 cells [1] = experiment: B16F10 footpad model, optimal time to begin GLA administration (Example 5); format: in vivo, C57BL/6 mice; details: 5 μg GLA-SE/2% SE i.t. starting Day 4 post-tumor injection, every 3-4 days; FIG. 7A
Method: To determine the optimal time to begin GLA administration, female C57BL/6 mice (n=5 per group) were inoculated with 5×10^5 B16F10 cells, subcutaneously in the right footpad on Day 0. Mice were given intratumoral (i.t.) administrations of 5 μg GLA-SE/2% SE (or 2% SE vehicle control) on Day 4, Day 9, or Day 14, and every 3-4 days thereafter until the end of study.

B16F10 cells [2] = experiment: B16F10 footpad model, GLA plus checkpoint inhibitor (Example 5); format: in vivo, C57B1/6 mice; details: GLA alone: 5 μg GLA-SE/2% SE i.t. from Day 4 every 3-4 days; FIG. 7B
Method: Mice were given i.t. administrations of 5 μg GLA-SE/2% SE (or 2% SE vehicle control) plus intraperitoneal (i.p.) administrations of a CPI [anti-PDL1, anti-PD1, anti-CTLA4 (clone 9H10), anti-CTLA4 (clone 9D9), or LTF2 control antibody] at 100 μg starting on Day 4 and every 3-4 days thereafter until the end of study.

B16F10 cells [3] = experiment: B16F10 footpad model, GLA i.t. plus anti-CD40 i.p. (Example 6); format: in vivo, C57B1/6 mice; details: GLA alone: 5 μg GLA-SE/2% SE i.t. from Day 4 every 3-4 days; FIG. 8A
Method: Mice were given i.t. administrations of 5 μg GLA-SE/2% SE (or 2% SE vehicle control) plus i.p. administrations of anti-CD40 (or 2A3 control antibody) at 100 μg, starting on Day 4 and every 3-4 days thereafter until the end of study (FIG. 8A).

B16F10 cells [4] = experiment: B16F10 model, GLA i.t. plus anti-CD40 i.t., suboptimal doses (Example 6); format: in vivo, mice; details: GLA alone: 2 μg GLA-SE/2% SE i.t. on Day 8 and 15 post-tumor injection; FIG. 8B
Method: To determine whether anti-CD40 exerted anti-tumor effects in the tumor microenvironment, tumor-bearing mice were given i.t. administrations of 2 μg GLA-SE/2% SE (or 2% SE vehicle control) on Day 8 and 15 post-tumor injection and i.t. administrations of 50 μg anti-CD40 (or 2A3 control antibody) on Day 5 and 12 post-tumor injection (FIG. 8B). Suboptimal doses for GLA and anti-CD40 were given to avoid masking of a possible synergistic effect of the combination.

SMILES: CCCCCCCCCCCCCC(=O)O[C@H](CCCCCCCCCCC)CC(=O)O[C@@H]1[C@@H](NC(=O)C[C@H](CCCCCCCCCCC)OC(=O)CCCCCCCCCCCCC)[C@H](OC[C@H]2O[C@H](O)[C@H](NC(=O)C[C@H](O)CCCCCCCCCCC)[C@@H](OC(=O)C[C@H](O)CCCCCCCCCCC)[C@@H]2O)O[C@H](CO)[C@H]1OP(=O)(O)O [GLA, glucopyranosyl lipid A]
- percent survival (B16 melanoma cells): improved survival rate
- B16F10 tumor growth (B16F10 cells [1]): delayed B16F10 tumor growth
- B16F10 tumor growth (B16F10 cells [2]): delayed B16F10 tumor growth
- B16F10 tumor growth (B16F10 cells [3]): delayed B16F10 tumor growth
- tumor growth (B16F10 cells [4]): delayed tumor growth
